# Results from PubChem BioAssay AID1963425 (Molecular Pharmacology Branch, DTP, NCI, 2024).
# pIC50: −log10 of the molar value. Where “and” joins values, the source holds several entries; their conditions need not be identical. Equal entries are not always repeated.
# Test system: 323965-272-R-J2-PDC complex spheroid growth, % test/control
# Assay: Anticancer human tumor 323965-272-R-J2-PDC patient-derived pancreatic carcinoma cell line growth inhibition [Asc]
# Conditions: for viability, T/C: stronger effect = lower value
# In short: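 Stromal components (HUVEC and hMSC) are co-assembled with the cancer cells into multicellular spheroids. Drugs are then added singly or paired, at concentrations falling by half-log increments from a clinically achievable maximum, capped at 10 microM without known Cmax.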
# [1] = curve of first compound, second compound 0.00316 µM
# [2] = curve of first compound, second compound 0.01 µM
# [3] = curve of first compound, second compound 0.0316 µM
# [4] = curve of first compound, second compound 0.1 µM
# [5] = curve of first compound, second compound 0.316 µM
# [6] = curve of first compound, second compound 1 µM
# [7] = second compound 0.00316 µM, first compound 0.0316 µM
# [8] = second compound 0.00316 µM, first compound 0.1 µM
# [9] = second compound 0.00316 µM, first compound 0.316 µM
# [10] = second compound 0.00316 µM, first compound 1 µM
# [11] = second compound 0.01 µM, first compound 0.0316 µM
# [12] = second compound 0.01 µM, first compound 0.1 µM
# [13] = second compound 0.01 µM, first compound 0.316 µM
# [14] = second compound 0.01 µM, first compound 1 µM
# [15] = second compound 0.0316 µM, first compound 0.0316 µM
# [16] = second compound 0.0316 µM, first compound 0.1 µM
# [17] = second compound 0.0316 µM, first compound 0.316 µM
# [18] = second compound 0.0316 µM, first compound 1 µM
# [19] = second compound 0.1 µM, first compound 0.0316 µM
# [20] = second compound 0.1 µM, first compound 0.1 µM
# [21] = second compound 0.1 µM, first compound 0.316 µM
# [22] = second compound 0.1 µM, first compound 1 µM
# [23] = second compound 0.316 µM, first compound 0.0316 µM
# [24] = second compound 0.316 µM, first compound 0.1 µM
# [25] = second compound 0.316 µM, first compound 0.316 µM
# [26] = second compound 0.316 µM, first compound 1 µM
# [27] = second compound 1 µM, first compound 0.0316 µM
# [28] = second compound 1 µM, first compound 0.1 µM
# [29] = second compound 1 µM, first compound 0.316 µM
# [30] = second compound 1 µM, first compound 1 µM
# [31] = second compound 0.00316 µM, first compound 3.16 µM
# [32] = second compound 0.00316 µM, first compound 10 µM
# [33] = second compound 0.01 µM, first compound 3.16 µM
# [34] = second compound 0.01 µM, first compound 10 µM
# [35] = second compound 0.0316 µM, first compound 3.16 µM
# [36] = second compound 0.0316 µM, first compound 10 µM
# [37] = second compound 0.1 µM, first compound 3.16 µM
# [38] = second compound 0.1 µM, first compound 10 µM
# [39] = second compound 0.316 µM, first compound 3.16 µM
# [40] = second compound 0.316 µM, first compound 10 µM
# [41] = second compound 1 µM, first compound 3.16 µM
# [42] = second compound 1 µM, first compound 10 µM
# 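Note: compound exposure lasted 7 days starting three days after spheroid seeding.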
# 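Throughout, for viability, T/C: 100% = DMSO vehicle control wells with viability set relative to vehicle.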
smiles,measurement,setting,value
CCN1CCN(Cc2ccc(Nc3ncc(F)c(-c4cc(F)c5nc(C)n(C(C)C)c5c4)n3)nc2)CC1 + CNC(C)C(=O)NC1CN(S(=O)(=O)c2cccc(S(=O)(=O)N3CCC4CCC(C(=O)NC(c5ccccc5)c5ccccc5)N4C(=O)C(NC(=O)C(C)NC)C3)c2)CCC2CCC(C(=O)NC(c3ccccc3)c3ccccc3)N2C1=O,pIC50,[1],< 6.00
same,pIC50,[2],< 6.00
same,pIC50,[3],< 6.00
same,pIC50,[4],< 6.00
same,pIC50,[5],< 6.00
same,pIC50,[6],< 6.00
same,"viability, T/C","second compound 0.00316 µM, first compound 0.00316 µM",108%
same,"viability, T/C","second compound 0.00316 µM, first compound 0.01 µM",88.7%
same,"viability, T/C",[7],96.8%
same,"viability, T/C",[8],83.6%
same,"viability, T/C",[9],81.5%
same,"viability, T/C",[10],77.2%
same,"viability, T/C","second compound 0.01 µM, first compound 0.00316 µM",98.1%
same,"viability, T/C","second compound 0.01 µM, first compound 0.01 µM",95%
same,"viability, T/C",[11],97.5%
same,"viability, T/C",[12],70%
same,"viability, T/C",[13],85.6%
same,"viability, T/C",[14],79%
same,"viability, T/C","second compound 0.0316 µM, first compound 0.00316 µM",101%
same,"viability, T/C","second compound 0.0316 µM, first compound 0.01 µM",95.3%
same,"viability, T/C",[15],87.2%
same,"viability, T/C",[16],76.1%
same,"viability, T/C",[17],75%
same,"viability, T/C",[18],72.4%
same,"viability, T/C","second compound 0.1 µM, first compound 0.00316 µM",104%
same,"viability, T/C","second compound 0.1 µM, first compound 0.01 µM",106%
same,"viability, T/C",[19],96.6%
same,"viability, T/C",[20],76.5%
same,"viability, T/C",[21],78.4%
same,"viability, T/C",[22],82.5%
same,"viability, T/C","second compound 0.316 µM, first compound 0.00316 µM",102%
same,"viability, T/C","second compound 0.316 µM, first compound 0.01 µM",101%
same,"viability, T/C",[23],95.4%
same,"viability, T/C",[24],69.6%
same,"viability, T/C",[25],70.6%
same,"viability, T/C",[26],83.6%
same,"viability, T/C","second compound 1 µM, first compound 0.00316 µM",87.4%
same,"viability, T/C","second compound 1 µM, first compound 0.01 µM",85.9%
same,"viability, T/C",[27],90.6%
same,"viability, T/C",[28],67.7%
same,"viability, T/C",[29],79.7%
same,"viability, T/C",[30],74.2%
C=CC(=O)N1CCN(c2nc(=O)n(-c3c(C)ccnc3C(C)C)c3nc(-c4c(O)cccc4F)c(F)cc23)C(C)C1 (stereo not drawn) + CNC(C)C(=O)NC1CN(S(=O)(=O)c2cccc(S(=O)(=O)N3CCC4CCC(C(=O)NC(c5ccccc5)c5ccccc5)N4C(=O)C(NC(=O)C(C)NC)C3)c2)CCC2CCC(C(=O)NC(c3ccccc3)c3ccccc3)N2C1=O,pIC50,[1],< 5.00
same,pIC50,[2],< 5.00
same,pIC50,[3],< 5.00
same,pIC50,[4],< 5.00
same,pIC50,[5],< 5.00
same,pIC50,[6],< 5.00
same,"viability, T/C",[7],67.7%
same,"viability, T/C",[8],59.1%
same,"viability, T/C",[9],61.1%
same,"viability, T/C",[10],57.4%
same,"viability, T/C",[31],66.1%
same,"viability, T/C",[32],60.2%
same,"viability, T/C",[11],66.5%
same,"viability, T/C",[12],70.6%
same,"viability, T/C",[13],56.9%
same,"viability, T/C",[14],69.8%
same,"viability, T/C",[33],55.9%
same,"viability, T/C",[34],70.3%
same,"viability, T/C",[15],83.4%
same,"viability, T/C",[16],67.7%
same,"viability, T/C",[17],62.4%
same,"viability, T/C",[18],60.6%
same,"viability, T/C",[35],62%
same,"viability, T/C",[36],67.2%
same,"viability, T/C",[19],76.3%
same,"viability, T/C",[20],60.5%
same,"viability, T/C",[21],66.7%
same,"viability, T/C",[22],58.8%
same,"viability, T/C",[37],63.9%
same,"viability, T/C",[38],61.3%
same,"viability, T/C",[23],64.3%
same,"viability, T/C",[24],65.8%
same,"viability, T/C",[25],56.9%
same,"viability, T/C",[26],54.9%
same,"viability, T/C",[39],63.2%
same,"viability, T/C",[40],64.3%
same,"viability, T/C",[27],60.1%
same,"viability, T/C",[28],61.1%
same,"viability, T/C",[29],57.9%
same,"viability, T/C",[30],60.3%
same,"viability, T/C",[41],59%
same,"viability, T/C",[42],56.6%
C#Cc1c(F)ccc2cc(O)cc(-c3ncc4c(N5CC6CCC(C5)N6)nc(OCC56CCCN5CC(F)C6)nc4c3F)c12 (stereo not drawn) + CNC(C)C(=O)NC1CN(S(=O)(=O)c2cccc(S(=O)(=O)N3CCC4CCC(C(=O)NC(c5ccccc5)c5ccccc5)N4C(=O)C(NC(=O)C(C)NC)C3)c2)CCC2CCC(C(=O)NC(c3ccccc3)c3ccccc3)N2C1=O,pIC50,[1],< 5.00
same,pIC50,[2],< 5.00
same,pIC50,[3],< 5.00
same,pIC50,[4],< 5.00
same,pIC50,[5],< 5.00
same,pIC50,[6],< 5.00
same,"viability, T/C",[7],109%
same,"viability, T/C",[8],92.7%
same,"viability, T/C",[9],94.1%
same,"viability, T/C",[10],94.9%
same,"viability, T/C",[31],70.2%
same,"viability, T/C",[32],61.8%
same,"viability, T/C",[11],117%
same,"viability, T/C",[12],102%
same,"viability, T/C",[13],96.4%
same,"viability, T/C",[14],87.4%
same,"viability, T/C",[33],74.2%
same,"viability, T/C",[34],63.2%
same,"viability, T/C",[15],127%
same,"viability, T/C",[16],102%
same,"viability, T/C",[17],106%
same,"viability, T/C",[18],89.7%
same,"viability, T/C",[35],70.4%
same,"viability, T/C",[36],58.3%
same,"viability, T/C",[19],101%
same,"viability, T/C",[20],96.6%
same,"viability, T/C",[21],95.4%
same,"viability, T/C",[22],91.2%
same,"viability, T/C",[37],62.3%
same,"viability, T/C",[38],70.2%
same,"viability, T/C",[23],101%
same,"viability, T/C",[24],95.1%
same,"viability, T/C",[25],96.5%
same,"viability, T/C",[26],82.4%
same,"viability, T/C",[39],74%
same,"viability, T/C",[40],65.4%
same,"viability, T/C",[27],90.9%
same,"viability, T/C",[28],105%
same,"viability, T/C",[29],92.9%
same,"viability, T/C",[30],91%
same,"viability, T/C",[41],66.8%
same,"viability, T/C",[42],53.2%
CCN1CCN(Cc2ccc(Nc3ncc(F)c(-c4cc(F)c5nc(C)n(C(C)C)c5c4)n3)nc2)CC1,"viability, T/C",compound 0.00316 µM,114% and 101% and 112%
same,"viability, T/C",compound 0.01 µM,109% and 98.9% and 112%
same,"viability, T/C",compound 0.0316 µM,91.6% and 94.6% and 76.7%
same,"viability, T/C",compound 0.1 µM,75.6% and 84.4% and 76.1%
same,"viability, T/C",compound 0.316 µM,65.8% and 71.8% and 68%
same,"viability, T/C",compound 1 µM,67.9% and 74.1% and 82.3%
same,pIC50,curve of compound,< 6.00
